Patent publication US11492597B2, “Method for establishing colorectal cancer HK2 reporter gene cell line” (Guangdong Medical University, priority 2018, dated 2022)

Experiments:
HK2 = test: 2-MeOE2 treatment of HK2 reporter cell line, transcriptional level of HK2; assay type: cell-based; details: HK2 cell line treated for 24 h or 48 h, 10 uM, relative transcriptional level vs untreated control
Method: (§1) 2-Methoxyestradiol (2-MeOE2) is an HIF inhibitor, and at present, has entered an anti-tumor clinical second-stage test stage. […] The HK2 cell line is treated for 24 h or 48 h in 2-MeOE2 (10 uM), and the relative expression changes of the transcriptional level of HK2 and EGFP and those untreated as a control are analyzed. […] The experimental result further proves that the colorectal cancer HK2 reporter gene cell line constructed in the present invention can be used for screening and evaluating related anticancer drugs.

EGFP = test: 2-MeOE2 treatment of HK2 reporter cell line, transcriptional level of EGFP reporter; assay type: cell-based; details: HK2 cell line treated for 24 h or 48 h, 10 uM, relative transcriptional level vs untreated control
Method: as §1

## COc1cc2c(cc1O)CC[C@@H]1[C@@H]2CC[C@]2(C)[C@@H](O)CC[C@@H]12 [2-MeOE2, 2-Methoxyestradiol]
HK2
  expression level of HK2: obviously inhibited
EGFP
  expression of the EGFP: synergistically inhibited
